What all share (type): in vivo
Assay [1] in a line: Experiment 6 sensory evaluation of cyclic dipeptides, “top sharp saltiness”. The method in brief: (§1)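 Reduced-sodium curry roux (44 g in 300 g hot water) was spiked with cyclic dipeptide solutions matching heat-treated coriander or paprika levels, at 0.5% or 1.0% (w/w) final. Three evaluators scored each sample against unspiked reduced-sodium and common roux. Mean scores were graded F to AA.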

Assay [2] can be described thus: Experiment 6 sensory evaluation of cyclic dipeptides, “middle fullness (enhanced thickness)”. The method in brief: as §1
Assay [3] can be described thus: Experiment 6 sensory evaluation of cyclic dipeptides, “boosting of last flavor (aftertaste)”. The essentials:
as §1

The mark [4] stands for this setting: Additive amount paprika 0.5% (heat-treated paprika equivalent aqueous solution, final 0.5% (w/w)), reduced-sodium curry roux.
The mark [5] stands for this setting: Additive amount paprika 0.5%, reduced-sodium curry roux.
[6] abbreviates: heat-treated paprika equivalent aqueous solution of cyclic dipeptide, final 1.0% (w/w) in reduced-sodium curry roux dispersion.
The mark [7] stands for this setting: heat-treated paprika equivalent aqueous solution of cyclic dipeptide, final 1.0% (w/w) in reduced-sodium curry roux dispersion, 3 evaluators.
Setting [8] is: Additive amount coriander 0.5% (heat-treated coriander equivalent aqueous solution, final 0.5% (w/w)), reduced-sodium curry roux.
[9] abbreviates: Additive amount coriander 0.5%, reduced-sodium curry roux.
Setting [10] is: heat-treated coriander equivalent aqueous solution of cyclic dipeptide, final 1.0% (w/w) in reduced-sodium curry roux dispersion.
[11] abbreviates: heat-treated coriander equivalent aqueous solution of cyclic dipeptide, final 1.0% (w/w) in reduced-sodium curry roux dispersion, 3 evaluators.

Consider “cyclic (Leu/Ile-Leu/Ile) [Coriander ID 1]”, for which the “Top sharp saltiness Average” value in assay [1] (setting [4]) worked out at 2.7 points; in assay [1] (setting [7]), 1.7 points. The “Top sharp saltiness Evaluation” value in assay [1] (setting [5]) was “A (“A” when it was 2.6 or higher and 2.9 or lower)”; in assay [1] (setting [6]), “C (“C” when it was 1.1 or higher and 1.9 or lower)”. The “Middle fullness Average” value turned out to be 2.7 points in assay [2] (setting [5]) and 1.8 points in assay [2] (setting [7]). For the same substance, the “Middle fullness Evaluation” value in assay [2] (setting [5]) is “A (“A” when it was 2.6 or higher and 2.9 or lower)”; in assay [2] (setting [6]), “C (“C” when it was 1.1 or higher and 1.9 or lower)”. Further, the “Bosting of last flavor Average” value in assay [3] (setting [5]) is given as 3.0 points; in assay [3] (setting [7]) it was 2.3 points. Moreover, the “Bosting of last flavor Evaluation” value was “AA (“AA” when it was 3.0 or higher)” in assay [3] (setting [5]); “B (“B” when it was 2.0 or higher and 2.5 or lower)” in assay [3] (setting [6]).

For cyclic (Leu/Ile-Ser) [Coriander ID 24], the “Top sharp saltiness Average” value in assay [1] (setting [4]) was 2.9 points; in assay [1] (setting [7]) it was 1.7 points. Besides, the “Top sharp saltiness Evaluation” value in assay [1] (setting [5]) is “A (“A” when it was 2.6 or higher and 2.9 or lower)”; in assay [1] (setting [6]), “C (“C” when it was 1.1 or higher and 1.9 or lower)”. Moreover, the “Middle fullness Average” value in assay [2] (setting [5]) stood at 3.1 points; in assay [2] (setting [7]), 1.8 points. Further, the “Middle fullness Evaluation” value was “AA (“AA” when it was 3.0 or higher)” in assay [2] (setting [5]); “C (“C” when it was 1.1 or higher and 1.9 or lower)” in assay [2] (setting [6]). Moreover, the entries for the “Bosting of last flavor Average” value in assay [3] (setting [5]) and in assay [3] (setting [7]) were 2.9 points and 2.2 points, respectively. Moreover, the “Bosting of last flavor Evaluation” value in assay [3] (setting [5]) is “A (“A” when it was 2.6 or higher and 2.9 or lower)”; in assay [3] (setting [6]), “B (“B” when it was 2.0 or higher and 2.5 or lower)”.

As for cyclic (Phe-Asp) [Coriander ID 34], the “Top sharp saltiness Average” value in assay [1] (setting [4]) was found to be 3.0 points; in assay [1] (setting [7]) it was 3.2 points. The “Top sharp saltiness Evaluation” value in assay [1] (setting [5]) and in assay [1] (setting [6]) was “AA (“AA” when it was 3.0 or higher)” throughout. Moreover, the figures for the “Middle fullness Average” value in assay [2] (setting [5]) and in assay [2] (setting [7]) were 2.8 points and 3.2 points, respectively. Moreover, the “Middle fullness Evaluation” value in assay [2] (setting [5]) is “A (“A” when it was 2.6 or higher and 2.9 or lower)”; in assay [2] (setting [6]), “AA (“AA” when it was 3.0 or higher)”. Further, the “Bosting of last flavor Average” value in assay [3] (setting [5]) amounted to 2.7 points; in assay [3] (setting [7]), 3.2 points. For the same substance, the “Bosting of last flavor Evaluation” value in assay [3] (setting [5]) is “A (“A” when it was 2.6 or higher and 2.9 or lower)”; in assay [3] (setting [6]), “AA (“AA” when it was 3.0 or higher)”.

Consider cyclic (Phe-Phe) [Coriander ID 43], for which the “Top sharp saltiness Average” value in assay [1] (setting [8]) was found to be 2.3 points; in assay [1] (setting [11]) it was 2.8 points. In addition, the “Top sharp saltiness Evaluation” value in assay [1] (setting [9]) is “B (“B” when it was 2.0 or higher and 2.5 or lower)”; in assay [1] (setting [10]), “A (“A” when it was 2.6 or higher and 2.9 or lower)”. Further, the “Middle fullness Average” value is listed as 2.3 points in assay [2] (setting [9]) and 2.7 points in assay [2] (setting [11]). Besides, the “Middle fullness Evaluation” value in assay [2] (setting [9]) was “B (“B” when it was 2.0 or higher and 2.5 or lower)”; in assay [2] (setting [10]), “A (“A” when it was 2.6 or higher and 2.9 or lower)”. For the same substance, the figures for the “Bosting of last flavor Average” value in assay [3] (setting [9]) and in assay [3] (setting [11]) were 3.2 points and 2.7 points, respectively. For the same substance, the “Bosting of last flavor Evaluation” value is “AA (“AA” when it was 3.0 or higher)” in assay [3] (setting [9]); “A (“A” when it was 2.6 or higher and 2.9 or lower)” in assay [3] (setting [10]).

Regarding cyclic (Phe-Ser), the “Top sharp saltiness Average” value is 2.3 points in assay [1] (setting [4]) and 2.2 points in assay [1] (setting [7]). Moreover, the “Top sharp saltiness Evaluation” value was “B (“B” when it was 2.0 or higher and 2.5 or lower)” in assay [1] (setting [5]); “B (“B” when it was 2.0 or higher and 2.5 or lower)” in assay [1] (setting [6]). In addition, the “Middle fullness Average” value in assay [2] (setting [5]) was determined as 2.8 points; in assay [2] (setting [7]), 2.3 points. The “Middle fullness Evaluation” value in assay [2] (setting [5]) was “A (“A” when it was 2.6 or higher and 2.9 or lower)”; in assay [2] (setting [6]) it was “B (“B” when it was 2.0 or higher and 2.5 or lower)”. Further, the “Bosting of last flavor Average” value in assay [3] (setting [5]) was found to be 3.0 points; in assay [3] (setting [7]), 2.3 points. Also, the “Bosting of last flavor Evaluation” value in assay [3] (setting [5]) is “AA (“AA” when it was 3.0 or higher)”; in assay [3] (setting [6]), “B (“B” when it was 2.0 or higher and 2.5 or lower)”.

Consider cyclic (Phe-Thr) [Coriander ID 37], for which the figures for the “Top sharp saltiness Average” value in assay [1] (setting [4]) and in assay [1] (setting [7]) were 1.8 points and 2.3 points, respectively. The “Top sharp saltiness Evaluation” value in assay [1] (setting [5]) was “C (“C” when it was 1.1 or higher and 1.9 or lower)”; in assay [1] (setting [6]) it was “B (“B” when it was 2.0 or higher and 2.5 or lower)”. In addition, the “Middle fullness Average” value turned out to be 2.5 points in assay [2] (setting [5]) and 2.2 points in assay [2] (setting [7]). Also, the “Middle fullness Evaluation” value in assay [2] (setting [5]) was “B (“B” when it was 2.0 or higher and 2.5 or lower)”; in assay [2] (setting [6]), “B (“B” when it was 2.0 or higher and 2.5 or lower)”. Moreover, the “Bosting of last flavor Average” value in assay [3] (setting [5]) came to 2.7 points; in assay [3] (setting [7]), 2.3 points. For the same substance, the “Bosting of last flavor Evaluation” value in assay [3] (setting [5]) is “A (“A” when it was 2.6 or higher and 2.9 or lower)”; in assay [3] (setting [6]), “B (“B” when it was 2.0 or higher and 2.5 or lower)”.

As to cyclic (Phe-Tyr) [Coriander ID 41], the figures for the “Top sharp saltiness Average” value in assay [1] (setting [4]) and in assay [1] (setting [7]) were 1.8 points and 2.7 points, respectively. Also, the “Top sharp saltiness Evaluation” value was “C (“C” when it was 1.1 or higher and 1.9 or lower)” in assay [1] (setting [5]); “A (“A” when it was 2.6 or higher and 2.9 or lower)” in assay [1] (setting [6]). Also, the results for the “Middle fullness Average” value in assay [2] (setting [5]) and in assay [2] (setting [7]) were 2.0 points and 3.0 points, respectively. Besides, the “Middle fullness Evaluation” value was “B (“B” when it was 2.0 or higher and 2.5 or lower)” in assay [2] (setting [5]); “AA (“AA” when it was 3.0 or higher)” in assay [2] (setting [6]). Besides, the entries for the “Bosting of last flavor Average” value in assay [3] (setting [5]) and in assay [3] (setting [7]) were 2.0 points and 2.8 points, respectively. Besides, the “Bosting of last flavor Evaluation” value in assay [3] (setting [5]) was “B (“B” when it was 2.0 or higher and 2.5 or lower)”; in assay [3] (setting [6]), “A (“A” when it was 2.6 or higher and 2.9 or lower)”.

As to cyclic (Pro-Asp) [Coriander ID 16], the “Top sharp saltiness Average” value in assay [1] (setting [4]) and in assay [1] (setting [7]) was 1.8 points in each case. Further, the “Top sharp saltiness Evaluation” value is “C (“C” when it was 1.1 or higher and 1.9 or lower)” in assay [1] (setting [5]); “C (“C” when it was 1.1 or higher and 1.9 or lower)” in assay [1] (setting [6]). The “Middle fullness Average” value in assay [2] (setting [5]) and in assay [2] (setting [7]) was 2.0 points in each case. Moreover, the “Middle fullness Evaluation” value was “B (“B” when it was 2.0 or higher and 2.5 or lower)” in assay [2] (setting [5]); “B (“B” when it was 2.0 or higher and 2.5 or lower)” in assay [2] (setting [6]). Further, the “Bosting of last flavor Average” value in assay [3] (setting [5]) was 2.2 points; in assay [3] (setting [7]), 1.8 points. Moreover, the “Bosting of last flavor Evaluation” value is “B (“B” when it was 2.0 or higher and 2.5 or lower)” in assay [3] (setting [5]); “C (“C” when it was 1.1 or higher and 1.9 or lower)” in assay [3] (setting [6]).

For cyclic (Pro-Glu) [Coriander ID 48], the figures for the “Top sharp saltiness Average” value in assay [1] (setting [8]) and in assay [1] (setting [11]) were 1.7 points and 2.0 points, respectively. Also, the “Top sharp saltiness Evaluation” value in assay [1] (setting [9]) was “C (“C” when it was 1.1 or higher and 1.9 or lower)”; in assay [1] (setting [10]) it was “B (“B” when it was 2.0 or higher and 2.5 or lower)”. Also, the “Middle fullness Average” value was found to be 1.7 points in assay [2] (setting [9]) and 2.3 points in assay [2] (setting [11]). The “Middle fullness Evaluation” value in assay [2] (setting [9]) was “C (“C” when it was 1.1 or higher and 1.9 or lower)”; in assay [2] (setting [10]), “B (“B” when it was 2.0 or higher and 2.5 or lower)”. Further, the “Bosting of last flavor Average” value in assay [3] (setting [9]) stood at 1.8 points; in assay [3] (setting [11]), 2.3 points. Moreover, the “Bosting of last flavor Evaluation” value in assay [3] (setting [9]) is “C (“C” when it was 1.1 or higher and 1.9 or lower)”; in assay [3] (setting [10]) it was “B (“B” when it was 2.0 or higher and 2.5 or lower)”.

In the case of cyclic (Pro-Leu/Ile) [Coriander ID 39], the “Top sharp saltiness Average” value in assay [1] (setting [8]) is given as 1.5 points; in assay [1] (setting [11]), 1.8 points. Further, the “Top sharp saltiness Evaluation” value was “C (“C” when it was 1.1 or higher and 1.9 or lower)” in assay [1] (setting [9]); “C (“C” when it was 1.1 or higher and 1.9 or lower)” in assay [1] (setting [10]). The “Middle fullness Average” value in assay [2] (setting [9]) and in assay [2] (setting [11]) was 1.8 points in each case. Also, the “Middle fullness Evaluation” value in assay [2] (setting [9]) is “C (“C” when it was 1.1 or higher and 1.9 or lower)”; in assay [2] (setting [10]) it was “C (“C” when it was 1.1 or higher and 1.9 or lower)”. Moreover, the “Bosting of last flavor Average” value in assay [3] (setting [9]) is recorded as 2.2 points; in assay [3] (setting [11]), 1.7 points. The “Bosting of last flavor Evaluation” value in assay [3] (setting [9]) is “B (“B” when it was 2.0 or higher and 2.5 or lower)”; in assay [3] (setting [10]), “C (“C” when it was 1.1 or higher and 1.9 or lower)”.
